US12577229B2, “Substituted {5-methoxy-6-[(5-methoxypyridin-2-yl)methoxy]pyridin-3-yl} methyl compounds as CSF-1R inhibitors” (Eli Lilly and Company, priority 2020, dated 2026)

Columns and labels:
[1] = tested on: P301S mouse tauopathy model; conditions: cited from earlier work
[2] = target: T1, KIT L576P (Homo sapiens, UniProt P10721, L576P); assay: DiscoverX KINOMEscan kinase competition binding assay, KIT L576P; conditions: 2 μM compound concentration
T1 construct: purchased DiscoverX Corporation (Fremont, CA), contract assay
T1 sequence (P10721 26-976 L576P): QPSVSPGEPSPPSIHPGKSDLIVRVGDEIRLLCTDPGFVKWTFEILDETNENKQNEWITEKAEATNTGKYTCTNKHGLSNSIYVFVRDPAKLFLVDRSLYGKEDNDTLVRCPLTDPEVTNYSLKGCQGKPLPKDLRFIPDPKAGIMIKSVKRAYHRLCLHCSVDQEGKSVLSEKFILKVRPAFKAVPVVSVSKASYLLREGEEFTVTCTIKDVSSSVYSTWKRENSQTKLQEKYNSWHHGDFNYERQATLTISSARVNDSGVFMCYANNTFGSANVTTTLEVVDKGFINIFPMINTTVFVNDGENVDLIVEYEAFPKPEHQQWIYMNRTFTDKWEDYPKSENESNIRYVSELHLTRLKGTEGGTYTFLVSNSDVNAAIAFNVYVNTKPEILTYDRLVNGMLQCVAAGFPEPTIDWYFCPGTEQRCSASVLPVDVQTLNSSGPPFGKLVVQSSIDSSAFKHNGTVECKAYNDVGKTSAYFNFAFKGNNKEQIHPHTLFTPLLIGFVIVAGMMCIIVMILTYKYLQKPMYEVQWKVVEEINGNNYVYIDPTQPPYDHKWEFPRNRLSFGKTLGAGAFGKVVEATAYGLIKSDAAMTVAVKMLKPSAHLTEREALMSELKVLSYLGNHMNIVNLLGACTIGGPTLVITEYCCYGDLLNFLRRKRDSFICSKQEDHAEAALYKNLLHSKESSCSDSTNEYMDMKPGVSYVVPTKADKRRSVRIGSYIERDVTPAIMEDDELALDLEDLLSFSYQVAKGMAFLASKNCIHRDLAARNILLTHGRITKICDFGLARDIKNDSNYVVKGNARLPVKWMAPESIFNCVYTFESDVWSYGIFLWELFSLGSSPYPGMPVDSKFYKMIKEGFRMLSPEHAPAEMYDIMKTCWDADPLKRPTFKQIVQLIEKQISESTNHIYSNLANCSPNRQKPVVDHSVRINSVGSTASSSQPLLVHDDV
Description: (§1) DiscoverX® KINOMEscan™ In Vitro Kinase Competition Binding Assay
(§2) Compound activity (% binding) is monitored by measuring the amount of kinase captured in test versus control samples by using a qPCR method that detects the associated DNA label. The binding activity is converted to % inhibition and an IC50 value is determined for CSF-1R fold-selectivity assessment.
(§3) Assays to monitor binding to a 468-kinase panel are conducted at DiscoverX® Corporation (Fremont, CA). Test compound is provided as a 10 mM stock in 100% DMSO and evaluated at […] final concentrations. Kinases are tagged with DNA for qPCR detection. […] The liganded beads are blocked with excess biotin and washed with blocking buffer (Pierce SeaBlock, 1% BSA, 0.05% Tween 20 and 1 mM DTT) to remove unbound ligand and to reduce nonspecific binding. […] Test compound is prepared as a 40×stock in 100% DMSO and directly diluted into the assay. All reactions are performed in polypropylene 384-well plates in a final volume of 0.02 mL. […] The kinase concentration in the eluates is measured by qPCR. […]
(§4) The percent inhibition values, and the 3-point concentration response data are subsequently determined and analyzed with NGR software, and non-standard IC50 values are calculated from the resulting curve fit. […]

[3] = target: T2, KIT V559D V654A (Homo sapiens, UniProt P10721, V559D/V654A); assay: DiscoverX KINOMEscan kinase competition binding assay, KIT V559D V654A; conditions: 2 μM compound concentration
T2 construct: purchased DiscoverX Corporation (Fremont, CA), contract assay
T2 sequence (P10721 26-976 V559D/V654A): as the sequence (P10721 26-976 L576P) above, with V534D, P551L, V629A counted along it
Description: as §1, §2, §3, §4

[4] = tested on: 468-kinase panel; assay: DiscoverX KINOMEscan kinase competition binding assay, whole panel; design: species or system human; conditions: of 468 protein kinases, 2 μM compound concentration
Description: as §1, §2
Assays to monitor binding to a 468-kinase panel are conducted at DiscoverX® Corporation (Fremont, CA). […] Kinases are tagged with DNA for qPCR detection. […] The liganded beads are blocked with excess biotin and washed with blocking buffer (Pierce SeaBlock, 1% BSA, 0.05% Tween 20 and 1 mM DTT) to remove unbound ligand and to reduce nonspecific binding. […] Test compound is prepared as a 40×stock in 100% DMSO and directly diluted into the assay. All reactions are performed in polypropylene 384-well plates in a final volume of 0.02 mL. […] The kinase concentration in the eluates is measured by qPCR. The results for primary screen binding interactions are reported as ‘% Ctrl’, where lower numbers indicate stronger hits in the matrix.
Percent of control (% Ctrl) calculation: […]
as §4

[5] = target: KIT (Homo sapiens, UniProt P10721); assay: biochemical
Sequence of KIT (P10721 26-976): as the sequence (P10721 26-976 L576P) above, with P551L counted along it
Description: as §1, §2, §3, §4

[6] = target: T3, KIT V559D (Homo sapiens, UniProt P10721, V559D); assay: DiscoverX KINOMEscan kinase competition binding assay, KIT V559D; conditions: 2 μM compound concentration
T3 construct: purchased DiscoverX Corporation (Fremont, CA), contract assay
T3 sequence (P10721 26-976 V559D): as the sequence (P10721 26-976 L576P) above, with V534D, P551L counted along it
Description: as §1, §2, §3, §4

[7] = target: T4, human PDGFRβ (Homo sapiens, UniProt P09619); assay: DiscoverX PathHunter RTK cell based functional assay, PDGFRβ; conditions: PDGFRβ U2OS cells, 3 nM PDGF-BB agonist, n=4
T4 construct: enzyme fragment for Enzyme Fragment Complementation (β-galactosidase fragment); host or cells: U2OS
T4 sequence (P09619 33-1106): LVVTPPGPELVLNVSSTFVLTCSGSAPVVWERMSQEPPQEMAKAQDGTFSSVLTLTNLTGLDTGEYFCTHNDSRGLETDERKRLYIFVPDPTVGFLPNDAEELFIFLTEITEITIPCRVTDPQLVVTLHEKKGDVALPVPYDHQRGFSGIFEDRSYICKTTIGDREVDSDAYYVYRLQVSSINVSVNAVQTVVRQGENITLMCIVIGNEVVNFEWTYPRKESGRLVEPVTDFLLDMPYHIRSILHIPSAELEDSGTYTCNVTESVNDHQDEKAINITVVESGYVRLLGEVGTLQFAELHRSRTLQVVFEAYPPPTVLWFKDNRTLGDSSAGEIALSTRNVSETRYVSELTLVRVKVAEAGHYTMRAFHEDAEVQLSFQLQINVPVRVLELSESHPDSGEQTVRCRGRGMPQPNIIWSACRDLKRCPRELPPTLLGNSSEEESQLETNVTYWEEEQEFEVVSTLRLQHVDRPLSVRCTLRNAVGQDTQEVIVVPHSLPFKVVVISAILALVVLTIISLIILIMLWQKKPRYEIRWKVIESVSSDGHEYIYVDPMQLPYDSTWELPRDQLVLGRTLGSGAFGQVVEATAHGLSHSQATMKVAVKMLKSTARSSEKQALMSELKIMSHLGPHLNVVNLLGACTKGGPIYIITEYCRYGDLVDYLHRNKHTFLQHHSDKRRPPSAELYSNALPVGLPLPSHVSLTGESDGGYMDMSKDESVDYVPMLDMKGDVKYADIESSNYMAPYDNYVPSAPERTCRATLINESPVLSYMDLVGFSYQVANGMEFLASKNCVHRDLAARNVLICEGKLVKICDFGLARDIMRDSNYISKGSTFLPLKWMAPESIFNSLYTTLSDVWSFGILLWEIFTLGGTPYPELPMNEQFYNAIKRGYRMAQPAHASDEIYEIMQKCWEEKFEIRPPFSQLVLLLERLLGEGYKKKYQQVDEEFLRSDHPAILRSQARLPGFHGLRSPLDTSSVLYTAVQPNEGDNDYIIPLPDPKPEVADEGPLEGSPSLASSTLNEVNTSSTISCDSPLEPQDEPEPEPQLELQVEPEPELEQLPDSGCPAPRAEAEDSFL
Description: DiscoverX® PathHunter Receptor Tyrosine Kinase (RTK) Cell Based Functional Assay
For in vitro PDGFRβ (Accession NM_002609, Part No. 93-0493C3) and c-Kit (Accession NM_000222, Part No. 93-0853C3) cellular assays, the test compounds are prepared in DMSO to make up a 10 mM stock solution. The stock solution is serially diluted two-fold in DMSO to obtain a twenty-point curve with final compound concentrations ranging from 20.0 μM to 0.019 nM.
DiscoverX® PathHunter Receptor Tyrosine Kinase (RTK) cell based functional assays are utilized to profile compounds using Enzyme Fragment Complementation technology with human PDGFRβ U2OS cells and human c-Kit U2OS cells. Cells are continuously cultured from cell passage 5 up to cell passage 30 in AssayComplete™ Cell Culture Kit-103 (DiscoverX®, 92-3103G) media containing 500 μg/mL G418 and 250 μg/mL hygromycin. PDGFRβ or c-Kit cells (27 μL) in media (DiscoverX®, 93-0563R16B) are seeded at 1.5×10^4 cells/well into all wells of a Corning 384 poly-d-lysine coated white plate. The cell plates are then incubated overnight at 37° C., 5.0% CO2. Compound serial dilutions are then added to rows A-P, columns 3-22. DMSO and inhibitor controls are added to rows A-P, columns 1-2 and 23-24, respectively. Cell plates with compound or controls are incubated for 1 hour at 37° C., 5.0% CO2. […] After 1 hour, cell plates are read on a chemiluminescence capable plate reader. […]

[8] = target: T5, PDGFRB (Homo sapiens, UniProt P09619); assay: DiscoverX KINOMEscan kinase competition binding assay, PDGFRB
T5 construct: purchased DiscoverX Corporation (Fremont, CA), contract assay
T5 sequence (P09619 33-1106): as above
Description: as §1, §2, §3, §4

[9] = tested on: 5xFAD model of Alzheimer's disease; conditions: cited from earlier work

Which “effect on tau phosphorylation and aggregation” value [1] does the source give for CC1(C)CC=C(c2nc(C3CC(C)(C)OC(C)(C)C3)ccc2NC(=O)c2nc(C#N)c[nH]2)CC1 [JNJ-40346527] here?
Its value is “inhibit tau phosphorylation and aggregation”.

For COc1ccc(COc2ncc(Cc3ccnc(-c4cnn(C)c4)n3)cc2OC)nc1 [Example 1, 4-({5-Methoxy-6-[(5-methoxypyridin-2-yl)methoxy]pyridin-3-yl}methyl)-2-(1-methyl-1H-pyrazol-4-yl)pyrimidine], which inhibition at 2 µM [2] is on record?
The inhibition at 2 µM was 96.4%.

And the inhibition at 2 µM [3]?
The inhibition at 2 µM was 84%.

And the “number of kinases showing less than 35% control activity (or >65% inhibition)” value [4]?
The value was 3 kinases.

And the inhibition at 2 µM [5]?
The inhibition at 2 µM was 99.4%.

What about the inhibition at 2 µM [6] of the same compound?
Its inhibition at 2 µM is 99.5%.

And the IC50 [7]?
The IC50 was > 20 µM.

And the inhibition at 2 µM [8]?
Its inhibition at 2 µM is 90.8%.

Which “effect on amyloid pathology” value [9] does the source give for FC(F)(F)c1ccc(CNc2ccc(Cc3c[nH]c4ncc(Cl)cc34)cn2)cn1 [PLX3397] here?
Its value is “Reductions in intraneuronal amyloid, neuritic plaque formation and pre-fibrillar and fibrillar oligomers”.

What about the “effect on cognitive function” value [9] of the same compound?
Its value is “improvements in cognitive function”.
